From article PMC3049581, “Development and evaluation of human AP endonuclease inhibitors in melanoma and glioma cell lines” (British Journal of Cancer, 2011)
Entries after “also recorded” stand apart in the source; their conditions may differ. Like-named read-outs stand apart in the source and are kept apart here.

How the values were obtained:
[1] = system: melanoma and glioma cell lines; test: MTS assay, intrinsic cytotoxicity; format: cell-based; details: 120 h, MTS assay on day 5, read-out: GI50 (cell growth inhibition)
Protocol: (§1) MeWo, SKMel and MM418 melanoma cancer cell line were grown in RPMI culture medium (supplemented with penicillin 0.06 g l^−1, streptomycin 0.1 g l^−1 pH 7.0, 10% foetal bovine serum (FBS, PAA Cell Culture Company, Yeovil, Somerset, UK). U89 MG and SNB-19 glioma cell lines were grown in DMEM (supplemented with penicillin 0.06 g l^−1, streptomycin 0.1 g l^−1 pH 7.0, 10% foetal bovine serum (FBS, PAA Cell Culture Company). HUVEC endothelial cells were grown in a special media (199 Media+HAMS F12), and supplemented with 20% heat-inactivated foetal calf serum, 1% Hepes, 1% Glutamine, 12.5 μg Human EGF, 625 ng of Human bFGF, 3750 units of Heparin, penicillin 0.06 g l^−1, and streptomycin 0.1 g l^−1) Only cultures with a plating efficiency of over 70% were used for analyses.
(§2) To evaluate intrinsic cytotoxicity and to evaluate the potentiation of toxicity of cytotoxic agents by APE1 inhibitors, MTS assays were performed as per the manufacturer's recommendation (Promega, Southampton, UK). Briefly, 2000 cells per well (in 200 μl of medium) were seeded into a 96-well plate. For HUVEC cells, 5 μl of 2% type 2 gelatine (Sigma) was added to the wells and the plates were preincubated for 20 min at 37°C before seeding of cells. For intrinsic cytotoxicity assessments, cells were incubated with varying concentrations of APE1 inhibitors and the MTS assay was performed on day 5. […] Non-radioactive cell proliferation assay was conducted as described previously.

[2] = molecular target: T1, Human APE1 (Homo sapiens, UniProt P27695); test: Fluorescence-based AP site cleavage assay; format: biochemical; details: APE1 50 nM, wild type
T1 construct: purchased New England Biolabs
Protocol: (§3) A fluorescence-based AP site cleavage assay was performed as described previously with slight modifications ([Madhusudan et al, 2005]). Briefly, APE1 (50 nM) (New England Biolabs) was incubated in a buffer system consisting of 50 mM Tris-HCl, pH 8.0, 1 mM MgCl2, 50 mM NaCl, 2 mM DTT at 37°C for 10 min. 5′-F-GCCCCCXGGGGACGTACGATATCCCGCTCC-3′ and its complementary Q-labelled oligonucleotide (see above) were annealed in a buffer containing 100 μM Tris-HCl, 50 mM NaCl and 1 μM EDTA. AP-site cleavage was initiated by addition of the annealed substrate (25 nM) to the reaction mix. Fluorescence readings were taken at 5 min intervals during 30 min incubation at 37°C using an Envision Multilabel reader from Perkins Elmer (Cambridge, UK) with a 495 nm excitation and a 512 nm emission filter. If the DNA is cleaved at the abasic site at position 7 from the 5′-end by APE1, the 6-mer fluorescein-containing product will dissociate from its complement by thermal melting. As a result, the quenching effect of the 3′ dabcyl (which absorbs fluorescein fluorescence when in close proximity) is lost, and APE1 activity is measured indirectly as an increase in fluorescence signal (Figure 2A). Similar assays were developed for monitoring the AP endonuclease activity of endonuclease IV using a buffering system containing 10 mM HEPES-KOH, pH 7.4, 100 mM KCl and 60 ng of endonuclease IV (Trevigen, Abingdon, UK). The final DMSO concentration was maintained at 1.2% in all assays.
(§4) APE1 was incubated with the candidate inhibitors at 100 μM (final DMSO concentration, 1.2%) before initiating the AP site cleavage assay described in the previous section. […] In addition, screening of potential inhibitors for their specificity (at 100 μM concentration) was performed using endonuclease IV cleavage assays.
(§5) To estimate IC50 for APE1 inhibition, the ability of the compounds to inhibit APE1 at a range of concentrations (10 nM–100 μM) were evaluated in black 384-well plates. The reactions were set up as before and fluorescence intensity was measured every 5 min for 30 min following reaction initiation. Using the initial rate values from the assay, percent activity was calculated for each sample relative to a negative DMSO only control. The data was fitted to a sigmoidal dose-response model using Graphpad Prism 3.0 (GraphPad Software, La Jolla, CA, USA) and IC50 values were determined using the formula: % Activity=100/(1+10^(log[I]−log IC 50)).

[3] = molecular target: T2, E. coli endonuclease IV (Escherichia coli, UniProt P0A6C1); test: Fluorescence-based endonuclease IV cleavage assay (counter-screen); format: biochemical; details: tested at 100 μM
T2 construct: purchased Trevigen
Protocol: as §3, §4

[4] = molecular target: T3, AP endonuclease activity of HeLa whole-cell extracts (WCE) (Homo sapiens, UniProt P27695); test: Whole-cell extract AP-site cleavage assay; format: biochemical
T3 construct: incubated at 100 μM concentrations with 30 ng of HeLa WCE at room temperature; endogenous in cells; host or cells: HeLa whole-cell extract
Protocol: The supernatant WCE was retained, the protein concentration determined using the Bio-Rad Bradford reagent, and aliquots were stored at −80°C. AP endonuclease activity assays using 18-mer radiolabelled oligonucleotide substrates (see above) were performed. In brief, all potential APE1 inhibitors were incubated at 100 μM concentrations with 30 ng of HeLa WCE at room temperature for 15 min in incision buffer consisting of 50 mM Tris-HCl, pH 8, 1 mM MgCl2, 50 mM NaCl and 2 mM DTT. After incubation, 0.5 pmol ^32P-radiolabeled THF-containing 18-mer double-stranded DNA substrate was added. […] The radiolabeled substrate and product were separated on a standard polyacrylamide-denaturing gel and quantified by phosphorimager analysis.

[5] = system: melanoma and glioma cell lines; test: MTS assay, potentiation of cytotoxic agents (other inhibitors, data not shown); format: cell-based; details: relatively non-toxic inhibitor concentration
Protocol: as §1, §2

[6] = system: glioma cell lines; test: MTS assay, intrinsic cytotoxicity; format: cell-based; details: 120 h, MTS day 5, read-out: GI50 (cell growth inhibition)
Protocol: as §1, §2

[7] = system: melanoma cell lines; test: MTS assay, intrinsic cytotoxicity; format: cell-based; details: 120 h, MTS day 5, read-out: GI50 (cell growth inhibition)
Protocol: as §1, §2

[8] = system: SK-Mel30 melanoma cell line; test: MTS assay, potentiation of cytotoxic agents; format: cell-based; details: inhibitor 10 μM
Protocol: as §1, §2

[9] = system: U89MG glioma cell line; test: MTS assay, potentiation of cytotoxic agents; format: cell-based; details: inhibitor 10 μM
Protocol: as §1, §2

[10] = molecular target: T4, D148E polymorphic variant of APE1 (Homo sapiens, UniProt P27695, D148E); test: Radiolabelled oligonucleotide-based APE1 cleavage assay, D148E vs wild type; format: biochemical; details: data not shown
T4 construct: made in house
Protocol: This basic assay was performed as described previously ([Madhusudan et al, 2005]). Briefly, a radiolabelled uracil-containing oligonucleotide (5′-CTCGCAAGUGGGTACCGA-3′) was annealed to a complementary oligonucleotide. […] AP site cleavage reaction consisted of 50 nM APE1 and 0.75 ng reduced AP site double-stranded oligonucleotide incubated at 37°C for 1 h. The sample was resolved on a 15% TBE Criterion Pre Cast Gel (Bio-Rad, Hemel Hempstead, Herts, UK) and the radiolabelled substrate and reaction products were visualised using a phosphorImager (Molecular Dynamics, Buckinghamshire, UK).

[11] = molecular target: T4, D148E polymorphic variant of APE1; test: Fluorescence-based AP site cleavage assay, D148E polymorph; format: biochemical
Protocol: as §3
as §5, with “The data was fitted to a sigmoidal dose-response model using Graphpad Prism 3.0 (GraphPad Software, La Jolla, CA, USA) and IC50 values were determined using the formula: % Activity=100/(1+10^(log[I]−log IC 50)).” left out

[12] = system: U89MG cells; test: Aldehyde reactive probe assay, genomic AP sites; format: cell-based
Protocol: AP sites were quantified as described previously ([Madhusudan et al, 2005]). Genomic DNA was extracted from a pellet of 1 × 10^6 cells using the guanidine/detergent lysis method. Briefly, 0.5 ml of DNAzol (Helena Biosciences, Gateshead, UK) was added to the pellet and the cell lysate was gently passed several times through a pipette. The resultant viscous solution was centrifuged at 10 000 g for 10 min at 25°C. DNA was precipitated from the supernatant using 0.25 ml of 100% ethanol by gently inverting the tube 5–8 times at room temperature for 1–3 min. The DNA was washed twice in 0.4 ml of 75% ethanol. The DNA was then solubilized in TE buffer (pH 8.0), and the final concentration was adjusted to 100 μg ml^−1 (using a Gene Quant pro spectrophotometer). AP-site determinations were performed on the genomic DNA using an aldehyde reactive probe assay kit using the protocol provided by the manufacturer (BioVision Research Products, Mountainview, CA, USA). Untreated cells were compared with cells exposed to either MMS alone, APE1 inhibitor alone or combination of MMS and APE1 inhibitor. DNA was extracted at 90 min and AP site quantified as described previously. All experiments were performed in triplicate.

[13] = system: HUVEC endothelial cells; test: MTS assay, toxicity in non-cancer cells; format: cell-based; details: compared with SK-Mel30 and U89MG
Protocol: as §1
To evaluate intrinsic cytotoxicity and to evaluate the potentiation of toxicity of cytotoxic agents by APE1 inhibitors, MTS assays were performed as per the manufacturer's recommendation (Promega, Southampton, UK). Briefly, 2000 cells per well (in 200 μl of medium) were seeded into a 96-well plate. For HUVEC cells, 5 μl of 2% type 2 gelatine (Sigma) was added to the wells and the plates were preincubated for 20 min at 37°C before seeding of cells. For intrinsic cytotoxicity assessments, cells were incubated with varying concentrations of APE1 inhibitors and the MTS assay was performed on day 5. […]

[14] = 30 ng HeLa WCE, read-out: WCE Inhibition (whole-cell extracts AP site cleavage inhibition)

T4 sequence (P27695 whole entry D148E): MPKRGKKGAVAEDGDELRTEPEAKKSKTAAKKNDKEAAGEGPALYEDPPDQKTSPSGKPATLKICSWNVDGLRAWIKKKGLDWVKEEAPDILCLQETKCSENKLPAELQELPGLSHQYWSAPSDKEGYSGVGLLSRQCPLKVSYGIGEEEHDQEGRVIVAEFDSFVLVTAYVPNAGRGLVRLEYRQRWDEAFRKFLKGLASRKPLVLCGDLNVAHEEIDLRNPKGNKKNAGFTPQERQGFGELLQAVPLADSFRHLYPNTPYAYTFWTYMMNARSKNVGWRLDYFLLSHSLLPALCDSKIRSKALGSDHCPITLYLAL
T3 sequence (P27695 whole entry): as the sequence (P27695 whole entry D148E) above, with E148D counted along it
T1 sequence (P27695 whole entry): as the sequence (P27695 whole entry D148E) above, with E148D counted along it

SMILES | GI50 [1] [µM] | IC50 [2] [µM] | Endo IV inhibition [3] | inhibition at 100 µM [4, 14] [%] | potentiation of cytotoxicity of alkylating agents [5] | further results
O=C(O)c1cc2cc(F)ccc2[nH]1 [Compound 1, 5-fluoro-1H-indole-2-carboxylic acid] | > 300 | 10 | None | < 50 | not | –
O=C(COc1ccc2ccccc2c1)Nc1ccc(O)c(-c2nc3ccccc3o2)c1 [Compound 2, N-(3-benzooxazol-2-yl-4-hydroxy-phenyl)-2-(2-naphthyloxy)acetamide] | 50 | 25 | None | 50 to 75 | Potentiation of cytotoxicity was also demonstrated | –
O=C(OCC(=O)N1NC(c2ccc3ccccc3c2)=CC1c1ccccc1)c1ccc([N+](=O)[O-])s1 (stereo not drawn) [Compound 3, (3-(2-naphthyl)-5-phenyl-2,5-dihydropyrazol-1-yl) carbonylmethyl 5-nitrothiophene-2-carboxylate] | 1 | 3 | – | – | did not shown any potentiation | inhibition of AP site cleavage in WCE assay ([4]; 100 μM, HeLa WCE): no activity; also recorded: did not inhibit; inhibition of AP site cleavage in WCE assay ([4]; 100 μM, HeLa WCE, listed as compound 3, 100 µM): no effect
Cc1ccc(-c2nc(S(=O)(=O)c3ccccc3)c(SCC(=O)Nc3ccc(F)cc3)o2)cc1 [Compound 4, N-(4-fluorophenyl)-2-(4-phenylsulfonyl-2-(p-tolyl)oxazol-5-yl) sulfanyl-acetamide] | – | 11 | no inhibition and None | > 75 | – | GI50 [6]: 17 µM; GI50 [7]: 20 µM; potentiation of cytotoxicity of MMS [8]: Potentiation; potentiation of cytotoxicity of doxorubicin [8]: did not potentiate; potentiation of cytotoxicity of temozolomide [8]: Potentiation; potentiation of cytotoxicity of MMS [9]: Potentiation; also recorded: significantly potentiated; potentiation of cytotoxicity of doxorubicin [9]: did not potentiate; potentiation of cytotoxicity of temozolomide [9]: Potentiation; also recorded: significantly potentiated; preferential inhibitory activity towards D148E protein, radiolabelled assay [10]: confirmed; inhibition of AP site cleavage in WCE assay ([4]; 100 μM, HeLa WCE): > 90%; inhibition at 100 µM ([4]; HeLa WCE, read-out: inhibition of AP site cleavage in WCE assay): ~93%; IC50 ([11]; D148E polymorph, 50 nM protein, read-out: IC50 for APE1 inhibition, D148E protein): 5.56 µM; reduction of IC50 for D148E protein compared with wild type ([11]; D148E vs wild type): 50.5%; preferential inhibitory activity towards D148E compared with wild type ([11]; fluorescence or radiolabelled assays): D148E was more sensitive to inhibition; AP site content in genomic DNA, combination with MMS ([12]; 10 μM inhibitor + MMS 600 μM, 90 min): increased AP site content; AP site accumulation in genomic DNA, inhibitor alone ([12]; 10 μM, DNA extracted at 90 min, vs untreated cells): accumulated AP sites; toxicity to HUVEC cells [13]: relatively nontoxic
O=C(CCCn1c(SCC(=O)Nc2nccs2)nc2ccsc2c1=O)NCc1ccc2c(c1)OCO2 [Compound 5, N-(benzo(1,3)dioxol-5-ylmethyl)-4-(2-oxo-4-(thiazol-2-ylcarbamoylmethylsulfanyl)-9-thia-3,5-diazabicyclo(4.3.0)nona-4,7,10-trien-3-yl)-butanamide] | 14 | 12 | None | 50 to 75 | Potentiation of cytotoxicity was also demonstrated | –
O=C(CSc1nc2ccccc2s1)CSc1nc2ccccc2s1 [Compound 6, 1,3-bis(1,3-benzothiazol-2-ylthio)acetone] | 50 | 3 | None | – | Potentiation of cytotoxicity was also demonstrated | WCE Inhibition (whole-cell extracts AP site cleavage inhibition) ([4]; 100 μM, 30 ng HeLa WCE): Strong
N#CC(C(=O)c1cc2ccccc2o1)c1nc2ccccc2s1 (stereo not drawn) [Compound 7, 3-benzofuran-2-yl-2-benzothiazol-2-yl-3-oxo-propanenitrile] | 40 | 2 | complete inhibition and yes | 50 to 75 | did not show any potentiation | Endo IV inhibition ([3]; listed as compound 7): blocked endonuclease IV activity
